Assay results reported in patent publication US20250263426A1, “PDE4B INHIBITOR AND USE THEREOF” (Xizang Haisco Pharmaceutical Co., Ltd., priority 2022, published 2025).
Read-outs that look alike come from different tables or passages of the source.

Tests used:
PDE4D2 = PDE4D2 (Homo sapiens (Human), UniProt Q08499); assay: Effect of compounds on PDE4D2 activity (fluorescence polarization kit); assay type: biochemical
Method: FP was usually represented by mP value.
[formula] • I∥ (S520): fluorescence intensity in parallel direction • I⊥ (P520): fluorescence intensity in perpendicular direction • G: G factor=1
(§1) [formula] • mP(sample): mP of the test compound in a reaction well • mP(negative control): mP in the negative control well • mP(positive control): mP in the positive control well
According to the calculated inhibition rate at each concentration, the IC50 value of each compound was calculated by GraphPad Prism 8 software.

PDE4B1 = PDE4B1 (Homo sapiens (Human), UniProt Q07343); assay: Effect of compounds on PDE4B1 activity (IMAP fluorescence polarization kit); assay type: biochemical
Method: The effect of compounds on PDE4B1 activity was detected using a fluorescence polarization kit (IMAP FP IPP Explorer KIT, Molecular Device, Cat #R8124). The IMAP Reaction Buffer containing 0.1% BSA (5×) in the kit was diluted into a 1-fold reaction buffer containing 1 mM DTT. 0.12 nM PDE4B1 (BPS, Cat #60041) was added to the 1-fold reaction buffer to form a 2-fold enzyme solution. 10 μL of the 2-fold enzyme solution was added to wells of a 384-well reaction plate. For the negative control well, 10 μL of the 1-fold reaction buffer was used instead of the enzyme solution. Centrifugation at 1000 rpm for 1 minute and incubation at room temperature for 15 minutes were carried out. 0.2 uM FAM-labeled cAMP (FAM-cAMP, Molecular Device, Cat #R7506) was added to the 1-fold reaction buffer to form a 2-fold substrate solution. 10 μL of the 2-fold substrate solution was added to each well of the 384-well reaction plate. Centrifugation at 1000 rpm for 1 minute was carried out. A reaction was carried out at room temperature for 20 minutes. IMAP Progressive Binding Buffer A (5×), IMAP Progressive Binding Buffer B (5×), and IMAP Progressive Binding Reagent (provided by IMAP FP IPP Explorer Kit) were prepared into a reaction stop solution according to the instructions for use. 60 μL of an […] reaction stop solution was added to each well of the 384-well reaction plate to stop the reaction, and the reaction product was centrifuged at 1000 rpm for 1 minute. Incubation at room temperature in the dark for 60 minutes was carried out. The mP values (Ex480/Em535 (s), Em535 (p)) were read by a microplate reader (Envision).
FP was usually represented by mP value. mP value for FP measurement=1000*(S−G*P)/(S+G*P) • S: fluorescence intensity in parallel direction • P: fluorescence intensity in perpendicular direction • G: G factor=1
as §1
According to the calculated inhibition rate at each concentration, the IC50 value of each compound was calculated by XLFit excel add-in version 5.4.0.8 software.

PDE4B2 = PDE4B2 (Homo sapiens (Human), UniProt Q07343); assay: Effect of compounds on PDE4B2 activity (fluorescence polarization kit)
Excerpt: [formula] • I∥ (S535): fluorescence intensity in parallel direction • I⊥ (P535): fluorescence intensity in perpendicular direction • G: G factor=1

[1] = tested on: human peripheral blood mononuclear cells (TNF-α release); assay: Inhibition of LPS-induced TNF-α release from human peripheral blood mononuclear cells in vitro; assay type: cell-based; details: 4 h; for IC50: read-out: Re IC50; for Emax: read-out: Max inhibition (%)
Method: 5. Detection of Inhibitory Activity of Compounds on the Release of Tumor Necrosis Factor-α (TNF-α) from Human Peripheral Blood Mononuclear Cells Induced by Lipopolysaccharide (LPS) In Vitro
The concentration of hPBMC cells was adjusted to 0.25×10^6 cells/mL with RPMI1640 medium and inoculated into a 96-well plate in an amount of 50000 cells per well. […] Incubation was carried out for 4 h in an incubator at 37° C. and 5% CO2. The cell supernatant was collected, and the content of TNF-α in the supernatant sample was detected by human TNF-α Elisa quantitative test kit (Sino Biological, Cat #KIT10602). The IC50 value was calculated using GraphPad Prism software.

[2] = Pharmacokinetic test in beagle dogs; assay type: in vivo; details: for half-life: read-out: T½ (converted)
Method: 8.1 Experimental animals: Male beagle dogs, about 8-11 kg, 6 beagle dogs/compound, purchased from Beijing Marshall Biotechnology Co., Ltd.
8.2 Experimental method: On the day of the experiment, 6 beagle dogs were randomly grouped according to their body weights. The animals were fasted with water available for 12 to 14 h one day before the administration and were fed 4 h after the administration. Administration was carried out according to Table 10.

[3] = Pharmacokinetic test in mice; assay type: in vivo, ICR mice; details: for half-life: read-out: T½ (converted)
Method: 6.1 Experimental animals: Male ICR mice, 20-25 g, 6 mice/compound, purchased from Chengdu Ddossy Experimental Animals Co., Ltd.
6.2 Experiment design: On the day of the experiment, 6 ICR mice were randomly grouped according to their body weights. The animals were fasted with water available for 12 to 14 h one day before the administration and were fed 4 h after the administration.

[4] = Pharmacokinetic test in rats; assay type: in vivo; details: male, SD
Method: 7.1 Experimental animals: Male SD rats, about 220 g, 6-8 weeks old, 6 rats/compound, purchased from Chengdu Ddossy Experimental Animals Co., Ltd.
7.2 Experiment design: On the day of the experiment, 6 SD rats were randomly grouped according to their body weights. The animals were fasted with water available for 12 to 14 h one day before the administration and were fed 4 h after the administration.

[5] = relative IC50, hPBMC, 100 ng/mL LPS
[6] = Homo sapiens, PBMC, hPBMC, 100 ng/mL LPS
[7] = male, iv, beagle dog plasma, i.v. 1 mg/kg
[8] = male, po, beagle dog plasma, i.g. 3 mg/kg
[9] = male, ICR, iv, mouse plasma, i.v. 2.5 mg/kg
[10] = male, ICR, po, mouse plasma, i.g. 10 mg/kg

Chain of PDE4B2 (Q07343 other isoform, or with tags, fused parts or gaps): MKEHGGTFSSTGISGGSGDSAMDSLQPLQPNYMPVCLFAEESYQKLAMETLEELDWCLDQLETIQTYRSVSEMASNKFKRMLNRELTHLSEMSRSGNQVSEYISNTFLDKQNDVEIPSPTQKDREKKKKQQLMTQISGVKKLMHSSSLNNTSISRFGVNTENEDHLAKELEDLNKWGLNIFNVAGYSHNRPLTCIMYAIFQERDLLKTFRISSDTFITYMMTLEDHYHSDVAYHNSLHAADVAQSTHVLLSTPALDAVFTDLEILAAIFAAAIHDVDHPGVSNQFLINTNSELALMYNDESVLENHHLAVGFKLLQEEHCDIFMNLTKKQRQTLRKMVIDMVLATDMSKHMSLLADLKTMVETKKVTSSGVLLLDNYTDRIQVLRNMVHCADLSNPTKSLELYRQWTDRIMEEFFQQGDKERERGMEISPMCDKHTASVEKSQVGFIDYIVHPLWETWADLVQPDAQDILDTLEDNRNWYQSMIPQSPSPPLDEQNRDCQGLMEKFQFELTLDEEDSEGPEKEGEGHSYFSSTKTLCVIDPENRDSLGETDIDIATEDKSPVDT
Chain of PDE4D2 (Q08499 303-809, change not shown): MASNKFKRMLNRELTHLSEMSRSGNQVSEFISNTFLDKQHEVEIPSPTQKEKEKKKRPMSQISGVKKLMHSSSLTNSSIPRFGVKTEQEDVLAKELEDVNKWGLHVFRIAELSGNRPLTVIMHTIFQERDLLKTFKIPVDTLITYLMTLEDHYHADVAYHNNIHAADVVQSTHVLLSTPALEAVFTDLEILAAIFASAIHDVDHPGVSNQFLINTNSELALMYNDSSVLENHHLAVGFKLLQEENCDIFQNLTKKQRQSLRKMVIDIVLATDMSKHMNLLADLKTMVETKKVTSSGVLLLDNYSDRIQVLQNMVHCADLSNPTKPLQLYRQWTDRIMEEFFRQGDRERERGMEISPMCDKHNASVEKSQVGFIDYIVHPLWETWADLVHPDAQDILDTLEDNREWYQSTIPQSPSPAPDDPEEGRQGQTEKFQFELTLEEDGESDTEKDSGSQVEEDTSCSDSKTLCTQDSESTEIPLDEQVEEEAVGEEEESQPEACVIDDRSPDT
Chain of PDE4B1 (Q07343 whole entry): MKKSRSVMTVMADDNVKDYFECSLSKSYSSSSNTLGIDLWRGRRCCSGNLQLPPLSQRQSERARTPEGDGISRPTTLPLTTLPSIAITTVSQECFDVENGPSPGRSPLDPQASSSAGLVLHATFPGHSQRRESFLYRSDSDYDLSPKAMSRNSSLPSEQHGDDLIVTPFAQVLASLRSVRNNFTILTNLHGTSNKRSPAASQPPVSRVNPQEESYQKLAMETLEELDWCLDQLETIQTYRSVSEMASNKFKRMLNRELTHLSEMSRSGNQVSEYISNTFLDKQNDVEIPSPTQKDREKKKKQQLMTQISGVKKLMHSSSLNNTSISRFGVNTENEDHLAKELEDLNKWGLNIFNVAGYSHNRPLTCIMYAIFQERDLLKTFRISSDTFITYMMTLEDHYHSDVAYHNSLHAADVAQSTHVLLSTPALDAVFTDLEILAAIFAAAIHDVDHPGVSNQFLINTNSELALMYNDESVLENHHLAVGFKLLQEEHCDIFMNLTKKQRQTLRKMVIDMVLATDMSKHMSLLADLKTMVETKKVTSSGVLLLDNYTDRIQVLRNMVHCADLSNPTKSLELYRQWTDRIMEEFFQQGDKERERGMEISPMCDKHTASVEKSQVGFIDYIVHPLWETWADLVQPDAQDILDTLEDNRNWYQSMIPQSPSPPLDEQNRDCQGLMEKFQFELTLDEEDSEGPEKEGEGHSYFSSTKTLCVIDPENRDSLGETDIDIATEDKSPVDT

SMILES | IC50 (PDE4D2) | IC50 (PDE4B2; read-out: PDE4B2 IC50) | Max inhibition (%) ([1]; hPBMC, 100 ng/mL LPS) | IC50 [1, 5] | IC50 ([1]; Homo sapiens, PBMC) | Emax [1, 6] | IC50 (PDE4B2) | other results
[O-][S+]1CCCc2nc(N3CCC(c4ncc(Cl)cn4)CC3)nc(NC3(CO)CCC3)c21 (centres unmarked) [Compound 3] | < 0.01 µM | 0.01 to 0.05 µM |  |  |  |  |  | IC50 (PDE4B1): < 0.01 µM
[O-][S@@+]1CCCc2nc(N3CC=C(c4ccc(Cl)cc4)CC3)nc(NC3(CO)CCC3)c21 [Compound 8-2] | < 0.01 µM |  |  |  |  |  |  | IC50 (PDE4B1): < 0.01 µM
[O-][S@@+]1CCCc2nc(N3CC=C(c4ncc(Cl)cn4)CC3)nc(NC3(CO)CCC3)c21 [Compound 9-2] | < 0.01 µM |  | 69.47% | 0.01 to 0.05 µM |  |  |  | IC50 (PDE4B1): < 0.01 µM
[O-][S@+]1CCCc2nc(N3CCC(c4ccc(Cl)cc4)CC3)nc(NC3(CO)CCC3)c21 [Compound 10-2] |  |  |  |  |  |  |  | IC50 (PDE4B1): 0.01 to 0.05 µM
[O-][S@@+]1CCCc2nc(N3CCN(c4ccc(Cl)cc4)CC3)nc(NC3(CO)CCC3)c21 [Compound 11-1] | 0.01 to 0.05 µM |  |  |  |  |  |  | IC50 (PDE4B1): < 0.01 µM
CC(C)(COC(N)=O)Nc1nc(N2CC=C(c3ncc(Cl)cn3)CC2)nc2c1[S@+]([O-])CC2 [Compound 51] | < 0.01 µM |  |  |  | < 0.01 µM | 69% | < 0.01 µM | F ([2]; beagle dog, i.g. 3 mg/kg): 74.9 ± 11%; AUC(0-t) [2, 7]: 4990 ± 239 ng·h/mL; clearance [2, 7]: 3.06 ± 0.18 mL/min/kg; half-life [2, 7]: 12.8 ± 3.8 h; Vd ([2]; male, iv, beagle dog plasma, i.v. 1 mg/kg, read-out: Vdss): 3.08 ± 0.61 L/kg; AUC(0-t) [2, 8]: 11200 ± 1710 ng·h/mL; half-life [2, 8]: 16.1 ± 5.5 h; AUC(0-t) [3, 9]: 5420 ± 926 ng·h/mL; clearance [3, 9]: 7.81 ± 1.4 mL/min/kg; half-life [3, 9]: 2.82 ± 0.23 h; Vd ([3]; male, ICR, iv, mouse plasma, i.v. 2.5 mg/kg, read-out: Vdss): 1.29 ± 0.039 L/kg; AUC(0-t) [3, 10]: 30100 ± 5360 ng·h/mL; half-life [3, 10]: 3.33 ± 0.58 h; F ([3]; mouse, i.g. 10 mg/kg): >98%
CC(C)(COC(N)=O)Nc1nc(N2CC=C(c3ncc(C4CC4)cn3)CC2)nc2c1[S@+]([O-])CC2 [Compound 84] | < 0.01 µM |  |  |  | < 0.01 µM | 68% | < 0.01 µM | AUC(0-t) ([4]; iv, rat plasma, i.v. 2.5 mg/kg): 16500 ng·h/mL; clearance ([4]; iv, rat plasma, i.v. 2.5 mg/kg): 2.54 ± 0.32 mL/min/kg; Vd ([4]; iv, rat plasma, i.v. 2.5 mg/kg, read-out: Vdss): 0.324 ± 0.012 L/kg; bioavailability ([4]; plasma, po, rat, i.g. 10 mg/kg): 78.9 ± 32%; AUC(0-t) ([4]; po, rat plasma, i.g. 10 mg/kg): 52200 ng·h/mL
C#Cc1cnc(C2=CCN(c3nc4c(c(NC5([C@H](C)O)CCC5)n3)[S@+]([O-])CC4)CC2)nc1 [Compound 96-2] | < 0.01 µM | < 0.01 µM | 81.63% | < 0.01 µM |  |  |  | 
C#Cc1cnc(C2=CCN(c3nc4c(c(NC5([C@H](C)O)CCC5)n3)[S@@+]([O-])CC4)CC2)nc1 [Compound 96-4] | 0.01 to 0.05 µM | 0.01 to 0.05 µM | 70.23% | 0.01 to 0.05 µM |  |  |  | 
CC#Cc1ccc(C2=CCN(c3nc4c(c(NC5(COC(N)=O)CCC5)n3)[S@+]([O-])CC4)CC2)nc1 [Compound 98] | < 0.01 µM |  |  |  | < 0.01 µM | 72.7% | < 0.01 µM | 
CC#Cc1ccc(C2=CCN(c3nc4c(c(NC5(CNC(=O)OC)CCC5)n3)[S@+]([O-])CC4)CC2)nc1 [Compound 100] | < 0.01 µM |  |  |  | < 0.01 µM | 79.2% | < 0.01 µM | 
CC#Cc1ccc(C2=CCN(c3nc4c(c(NC(C)(C)COC(N)=O)n3)[S@+]([O-])CC4)CC2)nc1 [Compound 101] | < 0.01 µM |  |  |  | < 0.01 µM | 80% | < 0.01 µM | 
CNC(=O)OCC(C)(C)Nc1nc(N2CC=C(c3ncc(Cl)cn3)CC2)nc2c1[S@+]([O-])CC2 [Compound 104] | 0.01 to 0.05 µM |  |  |  | 0.01 to 0.05 µM | 78.8% | 0.01 to 0.05 µM | 
C#Cc1ccc(C2=CCN(c3nc4c(c(NC(C)(C)COC(N)=O)n3)[S@+]([O-])CC4)CC2)nc1 [Compound 105] | < 0.01 µM |  |  |  | < 0.01 µM | 84% | < 0.01 µM | 
CC(C)(COC(N)=O)Nc1nc(N2CC=C(c3ncc(N4CC[Si](C)(C)CC4)cn3)CC2)nc2c1[S@+]([O-])CC2 [Compound 106] | 0.01 to 0.05 µM | 0.01 to 0.05 µM | 98.36% | 0.01 to 0.05 µM |  |  |  | 
CN1C[C@@H](Nc2nc(N3C[C@H]4CN(c5ccc6c(c5)CC6)C[C@H]4C3)nc3c2[S@@+]([O-])CC3)CCC1=O [Compound 109-4] | < 0.01 µM | < 0.01 µM | 85.74% | < 0.01 µM |  |  |  | 
CC#Cc1cnc2c(c1)OC[C@@H]1CN(c3nc4c(c(NC(C)(C)COC(N)=O)n3)[S@+]([O-])CC4)CCN21 [Compound 112-1] | 0.01 to 0.05 µM | < 0.01 µM | 83.76% | 0.01 to 0.05 µM |  |  |  | 
COC(=O)NCC(C)(C)Nc1nc(N2CC=C(c3ncc(C4CC4)cn3)CC2)nc2c1[S@+]([O-])CC2 [Compound 117] | 0.01 to 0.05 µM |  |  |  | 0.01 to 0.05 µM | 86% | 0.01 to 0.05 µM | 
COC(=O)NCC(C)(C)Nc1nc(N2C[C@@H]3CC(c4ncc5c(n4)CC5)=C[C@@H]3C2)nc2c1[S@+]([O-])CC2 [Compound 139-1] | < 0.01 µM | < 0.01 µM | 92.69% | < 0.01 µM |  |  |  | 
CC#Cc1cnc2c(c1)OC[C@@H]1CN(c3nc4c(c(NC(C)(C)CNC(=O)OC)n3)[S@+]([O-])CC4)CCN21 [Compound 140-1] | 0.01 to 0.05 µM | 0.01 to 0.05 µM | 93.38% | < 0.01 µM |  |  |  | 
CC#Cc1cnc2c(c1)OC[C@H]1CN(c3nc4c(c(NC(C)(C)CNC(=O)OC)n3)[S@+]([O-])CC4)CCN21 [Compound 140-2] | 0.05 to 0.1 µM | 0.01 to 0.05 µM | 89.58% | 0.01 to 0.05 µM |  |  |  | 
